Measurements: ChEMBL document CHEMBL4483862, “Open-source discovery of chemical leads for next-generation chemoprotective antimalarials” (2018)

Test system: Plasmodium berghei
Test: Luciferase/luciferin-expressing antifolate-resistant parasites were used to infect a culture of HepG2 cells that were pre-incubated with compounds. Infected hepatocytes emit light due to the luciferase reaction. Assay results are presented as the percent inhibition of light emission compared to control. […]
Format: functional
Conditions: sporozoite; for IC90: read-out: LUCIFERASE INFECTION ASSAY - IC90
[1] = read-out: LUCIFERASE INFECTION ASSAY - IC50

Compound | IC90 | IC50 [1] | also measured
CN1C(=O)N(CCCc2ccncc2)C(=O)C12CCN(Cc1cc3ccccc3[nH]1)CC2 | > 7.65 µM | – | IC50 (HEPG2TOX_HILL_SLOPE 1.79, HEPG2TOX_R_SQUARED 0.954, PBLUC_HILL_SLOPE 8.39, PBLUC_R_SQUARED 0.134, read-out: LUCIFERASE INFECTION ASSAY - IC50): 6.78 µM
Nc1ccc(-c2cn3c(-c4ccc5ncccc5c4)cnc3cn2)cn1 | 8.67 µM | – | IC50 (HEPG2TOX_HILL_SLOPE 12.3, HEPG2TOX_R_SQUARED 0.596, PBLUC_HILL_SLOPE 12.7, PBLUC_R_SQUARED 0.251, read-out: LUCIFERASE INFECTION ASSAY - IC50): 7.29 µM
Cc1nc(NCc2ccco2)c2c(C)c(C)sc2n1 | 4.47 µM | 3.73 µM | –
COc1cccc(Nc2nc(-c3ccc(CCC(C)NC(C)=O)cc3)cs2)c1 (stereo unspecified) | 8.54 µM | – | IC50 (HEPG2TOX_HILL_SLOPE 17.1, HEPG2TOX_R_SQUARED 0.93, PBLUC_HILL_SLOPE 0.895, PBLUC_R_SQUARED 0.745, read-out: LUCIFERASE INFECTION ASSAY - IC50): 0.734 µM
CCc1cccc2c(/C=C(/C(=O)NCc3ccccn3)c3nc4ccccc4[nH]3)c[nH]c12 | > 10 µM | – | IC50 (PBLUC_HILL_SLOPE 0.583, PBLUC_R_SQUARED 0.274, read-out: LUCIFERASE INFECTION ASSAY - IC50): > 10 µM
Cc1cc(C)n2ncc(C(=O)Nc3cccc(/C=C/c4ccccn4)c3)c2n1 | 8.17 µM | – | IC50 (PBLUC_HILL_SLOPE 1.28, PBLUC_R_SQUARED 0.742, read-out: LUCIFERASE INFECTION ASSAY - IC50): 1.46 µM
Cc1cccc(Cn2nc(C(C)(C)C)cc2-c2nnc(SCC(=O)c3ccccc3)o2)c1 | > 7.39 µM | – | IC50 (FFLUC_HILL_SLOPE 16.7, FFLUC_R_SQUARED 0.464, PBLUC_HILL_SLOPE 10.3, PBLUC_R_SQUARED 0.0963, read-out: LUCIFERASE INFECTION ASSAY - IC50): > 7.39 µM
CC12CCC(CC1=O)C2(C)C (stereo unspecified) [CAMPHOR] | > 21.7 µM | – | IC50 (FFLUC_HILL_SLOPE 14.9, FFLUC_R_SQUARED 0.342, read-out: LUCIFERASE INFECTION ASSAY - IC50): > 21.7 µM
O=C(Nc1cccc(/C=C/c2ccc3cccc(O)c3n2)c1)C(F)(F)F | > 10 µM | – | IC50 (PBLUC_HILL_SLOPE 13.5, PBLUC_R_SQUARED 0.34, read-out: LUCIFERASE INFECTION ASSAY - IC50): 8.84 µM
COC(=O)c1cnc(Sc2n[nH]c(=O)n2-c2cccc(C(F)(F)F)c2)c([N+](=O)[O-])c1 | > 7.48 µM | > 7.48 µM | –
CC(C)(C)C1CCc2nc3ccccc3c(C(=O)OCC(=O)c3ccc(Cl)s3)c2C1 (stereo unspecified) | > 10 µM | > 10 µM | –
O=c1c(C(F)(F)F)cccn1Cc1csc(COc2ccc(Cl)cc2)n1 | > 10 µM | – | IC50 (HEPG2TOX_HILL_SLOPE 13.6, HEPG2TOX_R_SQUARED 0.877, PBLUC_HILL_SLOPE 2.65, PBLUC_R_SQUARED 0.537, read-out: LUCIFERASE INFECTION ASSAY - IC50): 7.31 µM
CC(C)(C)c1ccc(C(=O)Nc2cc(Cl)cc(Cl)c2)cc1 | > 10.2 µM | > 10.2 µM | –
COc1ccc(C(=O)NCC(C)(C)SCc2c(C)cc(C)cc2C)cc1 | > 8.88 µM | – | IC50 (PBLUC_HILL_SLOPE 1.94, PBLUC_R_SQUARED 0.532, read-out: LUCIFERASE INFECTION ASSAY - IC50): 3.09 µM
CCn1c(C)nc2cc(C(=O)NNS(=O)(=O)c3cccc(Cl)c3Cl)ccc21.O=S(=O)(O)c1cccc(Cl)c1Cl | > 10 µM | > 10 µM | –
Cc1cc(C)n(-c2cc(N3CCN(C)CC3)nc(-c3ccccc3)n2)n1 | > 9.47 µM | – | IC50 (PBLUC_HILL_SLOPE 14.6, PBLUC_R_SQUARED 0.207, read-out: LUCIFERASE INFECTION ASSAY - IC50): 8.77 µM
Cc1cccn2c(C(=O)NC3CCCCC3)c(NC(=O)c3cccc(F)c3)nc12 | > 8.37 µM | > 8.37 µM | –
CC(C)(C)NC(=S)Nc1ccc(C(F)(F)F)cc1[N+](=O)[O-] | > 10.3 µM | – | IC50 (PBLUC_HILL_SLOPE 10.5, PBLUC_R_SQUARED 0.215, read-out: LUCIFERASE INFECTION ASSAY - IC50): 9.08 µM
Cc1nn(-c2ccccc2)c2nc(-c3cccs3)cc(C(=O)Nc3cc(Cl)ccc3N3CCN(C)CC3)c12 | 9.44 µM | – | IC50 (PBLUC_HILL_SLOPE 12, PBLUC_R_SQUARED 0.52, read-out: LUCIFERASE INFECTION ASSAY - IC50): 7.85 µM
CN(C)C(=O)c1ccc(-c2ccnc3n[nH]c(-c4cccc(Cl)c4)c23)cc1 | > 10 µM | 4.64 µM | –
Cc1cc(C2=NN/C(=N/C3CC3)SC2)c(C)n1-c1cccc(S(=O)(=O)N2CCOCC2)c1 | > 10 µM | – | IC50 (PBLUC_HILL_SLOPE 11.7, PBLUC_R_SQUARED 0.69, read-out: LUCIFERASE INFECTION ASSAY - IC50): 9.28 µM
CC1CC(C)CN(C(=O)CN2CCN(CC(=O)Nc3ccc(N4CCCCCC4)cc3)CC2)C1 (stereo unspecified) | > 10 µM | – | IC50 (PBLUC_HILL_SLOPE 1.09, PBLUC_R_SQUARED 0.619, read-out: LUCIFERASE INFECTION ASSAY - IC50): 3.56 µM

Compound | IC90 | IC50 [1] | also measured
O=C(OCC(=O)N(CCc1ccccc1)Cc1ccccc1)c1ccccc1NCCO | > 10 µM | > 10 µM | –
Cc1sc(NC(=O)c2ccco2)c(C(c2cccc(C(F)(F)F)c2)N2CC(C)CC(C)C2)c1C (stereo unspecified) | > 10 µM | 6.14 µM | –
Cc1cc2oc(=O)cc(CN(Cc3ccc(C(=O)NC4CC4)cc3)Cc3ccco3)c2cc1C | 1.83 µM | – | IC50 (PBLUC_HILL_SLOPE 3.23, PBLUC_R_SQUARED 0.675, read-out: LUCIFERASE INFECTION ASSAY - IC50): 0.928 µM
CN(C)c1ccc(-c2cc3c(cn2)nc(NCc2ccccc2)n3C)cc1 | > 10 µM | > 10 µM | –
COc1ccc(CCNC(=S)NC(=O)c2c(-c3ccccc3Cl)noc2C)cc1OC | > 7.17 µM | – | IC50 (PBLUC_HILL_SLOPE 1.8, PBLUC_R_SQUARED 0.103, read-out: LUCIFERASE INFECTION ASSAY - IC50): > 7.17 µM
COc1ccc(-c2cc([N+](=O)[O-])ccc2OCC(=O)NC(=O)NCCC(C)C)cc1 | > 10 µM | – | IC50 (PBLUC_HILL_SLOPE 8.25, PBLUC_R_SQUARED 0.103, read-out: LUCIFERASE INFECTION ASSAY - IC50): 9.42 µM
Cc1c(Cl)cnc(NC(=O)CSc2nnc(-c3ccccc3)o2)c1Cl | 2.88 µM | – | IC50 (FFLUC_HILL_SLOPE 2.78, FFLUC_R_SQUARED 0.409, HEPG2TOX_HILL_SLOPE 3.93, HEPG2TOX_R_SQUARED 0.284, PBLUC_HILL_SLOPE 2.91, PBLUC_R_SQUARED 0.621, read-out: LUCIFERASE INFECTION ASSAY - IC50): 1.35 µM
Cc1cc(C(=O)C(C)OC(=O)c2ccc(S(=O)(=O)NCc3ccco3)cc2)c(C)n1-c1ccc(Cl)cc1 (stereo unspecified) | > 10 µM | – | IC50 (HEPG2TOX_HILL_SLOPE 0.938, HEPG2TOX_R_SQUARED 0.54, PBLUC_HILL_SLOPE 4.63, PBLUC_R_SQUARED 0.33, read-out: LUCIFERASE INFECTION ASSAY - IC50): 7.49 µM
O=C1c2ccccc2O[C@@H](c2ccc([N+](=O)[O-])cc2)[C@@H]1O | > 11.6 µM | – | IC50 (PBLUC_HILL_SLOPE 15.1, PBLUC_R_SQUARED 0.277, read-out: LUCIFERASE INFECTION ASSAY - IC50): 10.8 µM
COc1cc2c(cc1/C=C/C(=O)N(Cc1nc(=O)c3ccccc3[nH]1)CC1CCCO1)OC(C)C2 (stereo unspecified) | > 10 µM | > 10 µM | –
CCOc1cccc(-c2cn3c(-c4ccc(CO)cc4)cnc3cn2)c1 | 0.828 µM | – | IC50 (HEPG2TOX_HILL_SLOPE 0.91, HEPG2TOX_R_SQUARED 0.879, PBLUC_HILL_SLOPE 2.96, PBLUC_R_SQUARED 0.698, read-out: LUCIFERASE INFECTION ASSAY - IC50): 0.395 µM
O=c1c(Cl)c(Cl)cnn1-c1ccccc1 | > 13.7 µM | – | IC50 (HEPG2TOX_HILL_SLOPE 16.5, HEPG2TOX_R_SQUARED 0.386, read-out: LUCIFERASE INFECTION ASSAY - IC50): > 13.7 µM
CNc1nc2cnc(Nc3ccc(SC)cc3)cc2n1Cc1ccc(OC)c(OC)c1 | > 10 µM | > 10 µM | –
CCCN1C/C(=C/c2csnn2)C(=O)/C(=C/c2csnn2)C1 | > 10 µM | – | IC50 (HEPG2TOX_HILL_SLOPE 13.3, HEPG2TOX_R_SQUARED 0.713, read-out: LUCIFERASE INFECTION ASSAY - IC50): > 10 µM
CCN1C(=O)N(CCCc2cccnc2)C(=O)C12CCN(Cc1cnc(-c3ccccc3)s1)CC2 | > 6.74 µM | – | IC50 (HEPG2TOX_HILL_SLOPE 2.98, HEPG2TOX_R_SQUARED 0.92, PBLUC_HILL_SLOPE 12.2, PBLUC_R_SQUARED 0.164, read-out: LUCIFERASE INFECTION ASSAY - IC50): 6.3 µM
CN(C)C(=O)CNC(=O)c1ccc(C(F)(F)F)cc1 | > 10 µM | > 10 µM | –
CNc1snc(C)c1C(=O)OCCOc1ccccc1C(C)=O | 7.06 µM | – | IC50 (HEPG2TOX_HILL_SLOPE 1.35, HEPG2TOX_R_SQUARED 0.846, PBLUC_HILL_SLOPE 3.65, PBLUC_R_SQUARED 0.5, read-out: LUCIFERASE INFECTION ASSAY - IC50): 3.86 µM
CCCCNCCCCOc1ccc(C)cc1C(C)(C)C | > 10 µM | – | IC50 (PBLUC_HILL_SLOPE 18.2, PBLUC_R_SQUARED 0.163, read-out: LUCIFERASE INFECTION ASSAY - IC50): 8.89 µM
CCCCc1ccc(C(=O)Nc2nc3ccccn3c2C(=O)NCCCN2CCOCC2)cc1 | > 7.12 µM | – | IC50 (PBLUC_HILL_SLOPE 0.361, PBLUC_R_SQUARED 0.518, read-out: LUCIFERASE INFECTION ASSAY - IC50): 2.21 µM
CS/C(Nc1cccc(C(F)(F)F)c1)=C(/C#N)S(=O)(=O)c1ccc(Cl)cc1 | > 7.62 µM | – | IC50 (FFLUC_HILL_SLOPE 30.1, FFLUC_R_SQUARED 0.771, HEPG2TOX_HILL_SLOPE 1.92, HEPG2TOX_R_SQUARED 0.988, PBLUC_HILL_SLOPE 2.74, PBLUC_R_SQUARED 0.0319, read-out: LUCIFERASE INFECTION ASSAY - IC50): 4.34 µM
CCOc1ccc(S(=O)(=O)N2c3ccccc3C(C(N)=O)CC2C)cc1OCC (stereo unspecified) | > 10 µM | > 10 µM | –
